Key:
LDLR [1] = experiment: Combination treatment with 25-hydroxycholesterol and agRNAs (western, HepG2); assay type: cell-based, human; settings: 25-hydroxycholesterol 2 μM
Procedure: (§1) Analysis of LDLR protein expression. Cells were harvested 4 days after transfection for western blotting analysis. Cells were detached from plates using cell dissociation solution (Sigma) and lysed with lysis buffer (50 mM Tris-HCl, 120 mM NaCl, 0.5% NP-40, 1 mM EDTA, 1 mM DTT, and protease inhibitor (Calbiochem)). Protein concentrations were quantified with BCA assay kit (Thermo Scientific). SDS-PAGE was performed using 7.5% Tris-HCl gels (Bio-Rad). Gels were run at 100 V for 60 min. After gel electrophoresis, proteins were transferred to nitrocellulose membrane (Hybond-C-Extra; GE Healthcare) at 100 V for 2 h. After blocking the membrane with 5% non-fat dry milk/TBST at room temperature for 1 h, the membrane was incubated with primary antibody specific for LDLR or β-actin at the following dilution ratio: anti-LDLR antibody (ab52818; 1:10,000; abcam), anti-β-actin antibody (1:20,000; Sigma). HRP-conjugated anti-rabbit (1:10,000; Jackson ImmunoResearch) or anti-mouse (1:20,000; Sigma) secondary antibody was used for visualizing proteins using SuperSignal West Pico Chemiluminescent Substrate (Thermo Scientific). Protein bands were quantified using ImageJ software.
Combination treatment with 25-hydroxycholesterol and agRNAs. dsRNAs (50 nM) were transfected into HepG2 cells as described above (Day 0), and the media were exchanged one day later. […]

LDLR [2] = experiment: Western analysis of LDLR protein expression in HepG2 cells after transfection of duplex RNAs; assay type: cell-based, human; settings: for effect on LDLR expression (in words): 50 nM, western analysis
Procedure: Cell culture and transfection. Unmodified, 2′-O-methyl, and 2′-fluoro RNAs with two 2′-deoxythymidine bases at the 3′ end were obtained from Integrated DNA Technologies or Alnylam Pharmaceuticals. HepG2 (American Type Culture Collection (ATCC)) and fibroblast cells (GM04281; Coriell) were cultured with Minimum Essential Medium Eagle (MEM; Sigma) supplemented with 10% FBS, 1% MEM non-essential amino acids (Sigma), and 1 mM sodium pyruvate (Sigma). HuH-7 (Japanese Collection of Research Bioresources) and SW480 cells (ATCC) were cultured with Dulbecco's Modified Eagle's Medium (Sigma) supplemented with 10% FBS and 1 mM sodium pyruvate. Cells were plated in 6-well plates at 120,000 (HepG2 and HuH-7), 60,000 (fibroblast), or 150,000 (SW480) cells/well 2 days before transfection. Duplex RNAs were transfected into cells using Lipofectamine RNAiMAX (Invitrogen). Cationic lipid (2.4 μL for 50 nM dsRNA) was added to OptiMEM (Invitrogen) containing oligonucleotides and the oligonucleotide-lipid mixture (250 μL) was incubated at room temperature for 20 min. OptiMEM (for HepG2 and fibroblast) or full media (for HuH-7 and SW480) was added to a final volume of 1.25 mL and the mixture was applied to cells. Media was exchanged 1 day later with fresh supplemented media (2 mL).
as §1
(§2) Analysis of Interferon Responsive Genes. mRNA levels of the interferon responsive genes including OAST, OAS2, MX1, IFITM1, and ISGF3γ were measured by qRT-PCR. agRNAs (50 nM) and Poly I:C (0-100 ng/mL; Sigma) were transfected into HepG2 cells using the cationic lipid as described above. Three days after transfection, total RNAs from dsRNA-treated, poly I:C-treated, or untreated samples were isolated using TRIzol. The RNAs were treated with DNase I at 25° C. for 10 min, followed by reverse transcription reaction at 37° C. for 2 h. qPCR was performed using iTaq SYBR Supermix and primers specific for the interferon responsive genes (Interferon Response Detection Kit; System Biosciences). LDLR protein levels on Day 4 were also measured by western blot analysis.

AGO2 = biological target: T1, AGO2 (Homo sapiens, UniProt Q9UKV8); experiment: RNA immunoprecipitation (RIP) of AGO2 on the LDLR antisense transcript; assay type: cell-based; settings: 50 nM, HepG2 cells
T1 construct: endogenous in cells; host or cells: HepG2
T1 sequence (Q9UKV8 whole entry): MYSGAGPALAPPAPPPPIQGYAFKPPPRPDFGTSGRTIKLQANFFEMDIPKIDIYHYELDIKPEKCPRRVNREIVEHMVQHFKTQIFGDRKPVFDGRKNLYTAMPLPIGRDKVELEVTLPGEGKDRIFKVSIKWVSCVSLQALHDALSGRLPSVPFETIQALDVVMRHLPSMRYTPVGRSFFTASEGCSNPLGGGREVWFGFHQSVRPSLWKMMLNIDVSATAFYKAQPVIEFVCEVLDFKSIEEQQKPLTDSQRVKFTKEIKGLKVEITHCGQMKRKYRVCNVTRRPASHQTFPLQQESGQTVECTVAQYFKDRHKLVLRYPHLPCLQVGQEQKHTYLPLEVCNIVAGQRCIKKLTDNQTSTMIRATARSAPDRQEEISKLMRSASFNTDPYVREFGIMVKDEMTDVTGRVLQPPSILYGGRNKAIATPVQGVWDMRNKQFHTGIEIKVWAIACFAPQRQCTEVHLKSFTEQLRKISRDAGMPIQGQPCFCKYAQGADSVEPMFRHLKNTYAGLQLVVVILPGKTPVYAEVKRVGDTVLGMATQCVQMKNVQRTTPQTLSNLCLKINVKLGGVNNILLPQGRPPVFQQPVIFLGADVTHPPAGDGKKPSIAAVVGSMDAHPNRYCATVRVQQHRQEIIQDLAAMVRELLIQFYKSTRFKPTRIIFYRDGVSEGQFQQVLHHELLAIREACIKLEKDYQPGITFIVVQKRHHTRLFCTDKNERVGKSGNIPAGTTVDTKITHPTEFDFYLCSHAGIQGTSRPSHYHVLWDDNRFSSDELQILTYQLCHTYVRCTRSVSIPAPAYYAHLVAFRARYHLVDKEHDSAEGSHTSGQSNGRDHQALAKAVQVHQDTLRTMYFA
Procedure: Chromatin Immunoprecipitation (ChIP)/RNA Immunoprecipitation (RIP). HepG2 cells were seeded at 1,080,000 cells in 15 cm dishes 2 days before transfection for ChIP or RIP experiments. Two dishes were treated with activating agRNAs (LDLR-24(U/U) and LDLR-28(U/U)) or mismatch controls (LDLRmm1, LDLRmm3, and LDLRmm4) (50 nM). Four days after transfection, cells were crosslinked with 1% formaldehyde. Cells were recovered by scraping and nuclei were isolated using hypotonic lysis buffer (5 mL; 10 mM Tris-HCl (pH 7.5), 10 mM NaCl, 3 mM MgCl2, 0.5% NP-40). Nuclei were lysed in lysis buffer (1 mL; 1% SDS, 10 mM EDTA, 50 mM Tris-HCl (pH 8.1), 1× Roche protease inhibitors cocktail, 40 U/mL RNasin Plus RNase Inhibitor (Promega)) and sonicated (2 pulses, 20% power, 20 sec).
The cell lysate (100 μL) was incubated overnight with antibodies in immunoprecipitation buffer (1 mL; 0.01% SDS, 1.1% Triton-X-100, 1.2 mM EDTA, 16.7 mM Tris-HCl (pH 8.1), 167 mM NaCl, and 1× Roche protease inhibitors cocktail, 40 U/mL RNasin Plus RNase Inhibitor). Monoclonal anti-RNAP II (2 μg; Millipore) and polyclonal anti-H3K27me3 (2 μg; Millipore) antibodies were used for ChIP experiments. Polyclonal anti-AGO1 (2 μg; Millipore) and polyclonal anti-AGO2 (2 μg; Millipore) antibodies were used for RIP experiments. […] PCR products were analyzed on 2.5% agarose gel and stained with ethidium bromide.

[3] = system: interferon responsive genes (OAST, OAS2, MX1, IFITM1, ISGF3γ); experiment: Analysis of interferon responsive genes by qRT-PCR in HepG2 cells; assay type: cell-based, human; settings: agRNAs 50 nM, poly I:C 0-100 ng/mL, HepG2, three days after transfection
Procedure: as §2

C[C@H](CCCC(C)(C)O)[C@H]1CC[C@H]2[C@@H]3CC=C4C[C@@H](O)CC[C@]4(C)[C@H]3CC[C@]12C [25-hydroxycholesterol]
baseline LDLR expression with 25-hydroxycholesterol alone (LDLR [1]): lowers baseline LDLR expression

LDLR-18: agRNA duplex; sense AAAUGACGUGGGCCCCGAGdTdT, antisense CUCGGGGCCCACGUCAUUUdTdT (sense AAAUGACGUGGGCCCCGAGDTDT; antisense CUCGGGGCCCACGUCAUUUDTDT; chemistry not fully specified)
effect on LDLR expression (in words) (LDLR [2]): appeared to reduce gene expression

LDLR-35: agRNA duplex; sense UCACAUUGAAAUGCUGUAAdTdT, antisense UUACAGCAUUUCAAUGUGAdTdT (sense UCACAUUGAAAUGCUGUAADTDT; antisense UUACAGCAUUUCAAUGUGADTDT; chemistry not fully specified)
effect on LDLR expression (in words) (LDLR [2]): appeared to reduce gene expression

LDLR-65: agRNA duplex; sense CACUGCAAACUCCUCCCCCdTdT, antisense GGGGGAGGAGUUUGCAGUGdTdT (sense CACUGCAAACUCCUCCCCCDTDT; antisense GGGGGAGGAGUUUGCAGUGDTDT; chemistry not fully specified)
effect on LDLR expression (in words) (LDLR [2]): appeared to reduce gene expression

LDLRmm3: mismatch duplex disrupting predicted seed sequence; sense UCCAGAAAAUGACGUGGGCdTdT, antisense GCCCACGUCAUUUUCUGGAdTdT (sense UCCAGAAAAUGACGUGGGCDTDT; antisense GCCCACGUCAUUUUCUGGADTDT; chemistry not fully specified)
recruitment of AGO2 to the LDLR antisense transcript (AGO2): not

LDLRmm4: mismatch duplex, three mismatches outside seed sequence; sense UGCUGUAAAUGAGGAGCGCdTdT, antisense GCGCUCCUCAUUUACAGCAdTdT (sense UGCUGUAAAUGAGGAGCGCDTDT; antisense GCGCUCCUCAUUUACAGCADTDT; chemistry not fully specified)
recruitment of AGO2 to the LDLR antisense transcript (AGO2): recruitment of AGO2 | effect on LDLR expression (in words) (LDLR [2]): activation

polyinosinic-polycytidylic acid [poly I:C]
interferon-responsive gene expression (OAST, OAS2, MX1, IFITM1, ISGF3γ) [3]: substantially increases | effect of poly I:C on LDLR expression (LDLR [2]; any concentrations tested (0-100 ng/mL), Day 4 western): did not upregulate LDLR expression
